Results as given in patent US11028079B2 (ConverGene LLC, priority 2015, dated 2021).

target: T1, BRD4 bromodomains (Homo sapiens, UniProt O60885); assay: BROMOscan bromodomain competition binding assay (DiscoveRx); settings: Kd from 11 compound concentrations ranging from 0 to 10 μM, read-out: BROMOscan Relative Activity
T1 construct: fused on or other part: T7 phage capsid protein (phage-display fusion; the phage DNA is read out by qPCR)
Procedure: Bromodomain assays were conducted to measure interactions between certain compounds and bromodomains.
The assays were conducted according to BROMOscan protocol from Discover Rx. Briefly, BRD4 bromodomains expressed as a fusion capsid protein of T7 phage were bound to acetylated peptide ligand on a solid phase and competition bindings were performed. T7 phage strains displaying bromodomains were grown in parallel in 24-well blocks in an E. coli host derived from the BL21 strain. E. coli were grown to log-phase and infected with T7 phage from a frozen stock (multiplicity of infection=0.4) and incubated with shaking at 32° C. until lysis (90-150 minutes). The lysates were centrifuged (5,000×g) and filtered (0.2 μm) to remove cell debris. […] The liganded beads were blocked with excess biotin and washed with blocking buffer (SeaBlock (Pierce), 1% BSA, 0.05% Tween 20, 1 mM DTT) to remove unbound ligand and to reduce non-specific phage binding. […] Test compounds were prepared as 1000× stocks in 100% DMSO and subsequently diluted 1:10 in monoethylene glycol (MEG) to create stocks at 100× the screening concentration (resulting stock solution is 10% DMSO/90% MEG). The compounds were then diluted directly into the assays such that the final concentration of DMSO and MEG were 0.1% and 0.9%, respectively. All reactions were performed in polystyrene 96-well plates in a final volume of 0.135 ml. […] The bromodomain concentration in the eluates was measured by qPCR. Data was collected at 11 compound concentrations ranging from 0 to 10 μM. Kd values were then derived from a standard dose-response curve generated with Hill equation (Hill Slope was set to ˜1) and a non-linear least square fit with the Levenberg-Marquardt algorithm. Response=Background+Signal−Background/1+(Kd Hill Slope/Dose Hill Slope)

Structure (SMILES)	Kd [nM]
Cc1noc(C)c1-c1ccc2nc(N3CCC(CCN(C)C)CC3)nc(NCc3cccc(Cl)c3)c2c1 [Example 34, N-(3-chlorobenzyl)-2-(4-(2-(dimethylamino)ethyl)piperidin-1-yl)-6-(3,5-dimethylisoxazol-4-yl)quinazolin-4-amine]	< 500
Cc1noc(C)c1-c1ccc2nc(N3CCN(C(=O)CN(C)C)CC3)nc(NCc3cccc(Cl)c3)c2c1 [Example 37, 1-(4-(4-((3-chlorobenzyl)amino)-6-(3,5-dimethylisoxazol-4-yl)quinazolin-2-yl)piperazin-1-yl)-2-(dimethylamino)ethanone]	< 500
Cc1noc(C)c1-c1ccc2c(NCc3cccc(Cl)c3)nc(Cl)nc2c1 [Example 38, 2-chloro-N-(3-chlorobenzyl)-7-(3,5-dimethylisoxazol-4-yl)quinazolin-4-amine]	500 to 5000
Cc1noc(C)c1-c1ccc2c(NCc3cccc(Cl)c3)nc(N3CCN(CCN(C)C)CC3)nc2c1 [Example 39, N-(3-chlorobenzyl)-2-(4-(2-(dimethylamino)ethyl)piperazin-1-yl)-7-(3,5-dimethylisoxazol-4-yl)quinazolin-4-amine]	500 to 5000
Cc1noc(C)c1-c1ccc2nc(-n3cc(CCO)cn3)nc(NCc3cccc(Cl)c3)c2c1 [Example 42, 2-(1-(4-((3-chlorobenzyl)amino)-6-(3,5-dimethylisoxazol-4-yl)quinazolin-2-yl)-1H-pyrazol-4-yl)ethanol]	< 500
Cc1noc(C)c1-c1ccc2nc(N3CCN(C[C@@H](C)O)CC3)nc(NCc3cccc(Cl)c3)c2c1 [Example 46, (R)-1-(4-(4-((3-chlorobenzyl)amino)-6-(3,5-dimethylisoxazol-4-yl)quinazolin-2-yl)piperazin-1-yl)propan-2-ol]	< 500
Cc1noc(C)c1-c1ccc2nc(-c3cnn(CC(N)=O)c3)nc(NCc3cccc(Cl)c3)c2c1 [Example 50, 2-(4-(4-((3-chlorobenzyl)amino)-6-(3,5-dimethylisoxazol-4-yl)quinazolin-2-yl)-1H-pyrazol-1-yl)acetamide]	< 500
Cc1noc(C)c1-c1ccc2c(NCc3cccc(Cl)c3)nc(-c3cnn(CC(N)=O)c3)nc2c1 [Example 51, 2-(4-(4-((3-chlorobenzyl)amino)-7-(3,5-dimethylisoxazol-4-yl)quinazolin-2-yl)-1H-pyrazol-1-yl)acetamide]	500 to 5000
CNC(=O)CN1CCN(c2nc(NCc3cccc(Cl)c3)c3cc(-c4c(C)noc4C)ccc3n2)CC1 [Example 53, 2-(4-(4-((3-chlorobenzyl)amino)-6-(3,5-dimethylisoxazol-4-yl)quinazolin-2-yl)piperazin-1-yl)-N-methylacetamide]	< 500
Cc1noc(C)c1-c1ccc2nc(N3CCN(CC(N)=O)CC3)nc(NCc3cccc(Cl)c3)c2c1 [Example 54, 2-(4-(4-((3-chlorobenzyl)amino)-6-(3,5-dimethylisoxazol-4-yl)quinazolin-2-yl)piperazin-1-yl)acetamide]	< 500
Cc1noc(C)c1-c1ccc2nc(N3CCN(C(=O)CN)CC3)nc(NCc3cccc(Cl)c3)c2c1 [Example 55, 2-amino-1-(4-(4-((3-chlorobenzyl)amino)-6-(3,5-dimethylisoxazol-4-yl)quinazolin-2-yl)piperazin-1-yl)ethanone]	< 500
Cc1noc(C)c1-c1ccc2nc(-c3cnn(CC(C)(C)O)c3)nc(NCc3cccc(Cl)c3)c2c1 [Example 56, 1-(4-(4-((3-chlorobenzyl)amino)-6-(3,5-dimethylisoxazol-4-yl)quinazolin-2-yl)-1H-pyrazol-1-yl)-2-methylpropan-2-ol]	< 500
COCCn1cc(-c2nc(NCc3cccc(Cl)c3)c3cc(-c4c(C)noc4C)ccc3n2)cn1 [Example 58, N-(3-chlorobenzyl)-6-(3,5-dimethylisoxazol-4-yl)-2-(1-(2-methoxyethyl)-1H-pyrazol-4-yl)quinazolin-4-amine]	< 500
Cc1noc(C)c1-c1ccc2nc(-c3cnn(CCN(C)C)c3)nc(NCc3cccc(Cl)c3)c2c1 [Example 60, N-(3-chlorobenzyl)-2-(1-(2-(dimethylamino)ethyl)-1H-pyrazol-4-yl)-6-(3,5-dimethylisoxazol-4-yl)quinazolin-4-amine]	< 500
Cc1noc(C)c1-c1ccc2nc(-c3cnn(C4COC4)c3)nc(NCc3cccc(Cl)c3)c2c1 [Example 61, N-(3-chlorobenzyl)-6-(3,5-dimethylisoxazol-4-yl)-2-(1-(oxetan-3-yl)-1H-pyrazol-4-yl)quinazolin-4-amine]	< 500

Next, values leading:

Kd [nM]	Structure (SMILES)
< 500	Cc1noc(C)c1-c1ccc2nc(N3CCN(C(=O)c4cccnc4)CC3)nc(NCc3cccc(Cl)c3)c2c1 [Example 35, (4-(4-((3-chlorobenzyl)amino)-6-(3,5-dimethylisoxazol-4-yl)quinazolin-2-yl)piperazin-1-yl)(pyridin-3-yl)methanone]
< 500	Cc1noc(C)c1-c1ccc2nc(N3CCN(C(=O)CO)CC3)nc(NCc3cccc(Cl)c3)c2c1 [Example 36, 1-(4-(4-((3-chlorobenzyl)amino)-6-(3,5-dimethylisoxazol-4-yl)quinazolin-2-yl)piperazin-1-yl)-2-hydroxyethanone]
500 to 5000	Cc1noc(C)c1-c1ccc2c(NCc3cccc(Cl)c3)nc(N3CCN(CCO)CC3)nc2c1 [Example 40, 2-(4-(4-((3-chlorobenzyl)amino)-7-(3,5-dimethylisoxazol-4-yl)quinazolin-2-yl)piperazin-1-yl)ethanol]
< 500	Cc1noc(C)c1-c1ccc2nc(N3CCC(CN(C)C)CC3)nc(NCc3cccc(Cl)c3)c2c1 [Example 41, N-(3-chlorobenzyl)-2-(4-((dimethylamino)methyl)piperidin-1-yl)-6-(3,5-dimethylisoxazol-4-yl)quinazolin-4-amine]
500 to 5000	Cc1noc(C)c1-c1ccc2cc(N3CCN(CCN(C)C)CC3)nc(NCc3cccc(Cl)c3)c2c1 [Example 43, N-(3-chlorobenzyl)-3-(4-(2-(dimethylamino)ethyl)piperazin-1-yl)-7-(3,5-dimethylisoxazol-4-yl)isoquinolin-1-amine]
500 to 5000	Cc1noc(C)c1-c1ccc2cc(N3CCN(CCO)CC3)nc(NCc3cccc(Cl)c3)c2c1 [Example 44, 2-(4-(1-((3-chlorobenzyl)amino)-7-(3,5-dimethylisoxazol-4-yl)isoquinolin-3-yl)piperazin-1-yl)ethanol]
< 500	Cc1noc(C)c1-c1ccc2nc(N3CCN(CC(C)O)CC3)nc(NCc3cccc(Cl)c3)c2c1 (stereo not drawn) [Example 45, 1-(4-(4-((3-chlorobenzyl)amino)-6-(3,5-dimethylisoxazol-4-yl)quinazolin-2-yl)piperazin-1-yl)propan-2-ol]
< 500	Cc1noc(C)c1-c1ccc2nc(N3CCN(C[C@H](C)O)CC3)nc(NCc3cccc(Cl)c3)c2c1 [Example 47, (S)-1-(4-(4-((3-chlorobenzyl)amino)-6-(3,5-dimethylisoxazol-4-yl)quinazolin-2-yl)piperazin-1-yl)propan-2-ol]
< 500	Cc1noc(C)c1-c1ccc2nc(-c3cnn(CCO)c3)nc(NCc3cccc(Cl)c3)c2c1 [Example 48, 2-(4-(4-((3-chlorobenzyl)amino)-6-(3,5-dimethylisoxazol-4-yl)quinazolin-2-yl)-1H-pyrazol-1-yl)ethanol]
< 500	Cc1noc(C)c1-c1ccc2nc(-c3cnn(C)c3)nc(NCc3cccc(Cl)c3)c2c1 [Example 49, N-(3-chlorobenzyl)-6-(3,5-dimethylisoxazol-4-yl)-2-(1-methyl-1H-pyrazol-4-yl)quinazolin-4-amine]
< 500	Cc1noc(C)c1-c1ccc2nc(N3CCN(CC(=O)N(C)C)CC3)nc(NCc3cccc(Cl)c3)c2c1 [Example 52, 2-(4-(4-((3-chlorobenzyl)amino)-6-(3,5-dimethylisoxazol-4-yl)quinazolin-2-yl)piperazin-1-yl)-N,N-dimethylacetamide]
< 500	Cc1noc(C)c1-c1ccc2nc(-c3cnn(CCC#N)c3)nc(NCc3cccc(Cl)c3)c2c1 [Example 57, 3-(4-(4-((3-chlorobenzyl)amino)-6-(3,5-dimethylisoxazol-4-yl)quinazolin-2-yl)-1H-pyrazol-1-yl)propanenitrile]
< 500	Cc1noc(C)c1-c1ccc2nc(-c3cnn(CC#N)c3)nc(NCc3cccc(Cl)c3)c2c1 [Example 59, 2-(4-(4-((3-chlorobenzyl)amino)-6-(3,5-dimethylisoxazol-4-yl)quinazolin-2-yl)-1H-pyrazol-1-yl)acetonitrile]
< 500	Cc1noc(C)c1-c1ccc2nc(-c3cnn(C(C)(C)CO)c3)nc(NCc3cccc(Cl)c3)c2c1 [Example 62, 2-(4-(4-((3-chlorobenzyl)amino)-6-(3,5-dimethylisoxazol-4-yl)quinazolin-2-yl)-1H-pyrazol-1-yl)-2-methylpropan-1-ol]
< 500	Cc1noc(C)c1-c1ccc2nc(-c3ccc(CO)nc3)nc(NCc3cccc(Cl)c3)c2c1 [Example 63, (5-(4-((3-chlorobenzyl)amino)-6-(3,5-dimethylisoxazol-4-yl)quinazolin-2-yl)pyridin-2-yl)methanol]
